Results reported in patent US12409174B2, “Combination of zibotentan and dapagliflozin for the treatment of endothelin related diseases” (priority 2020, dated 2025).

Columns and labels:
[1] = tested on: male Wistar rats fed a 4% salt diet; assay: Effect of zibotentan and dapagliflozin on kidney and heart weight, Experiment 2; assay type: in vivo; conditions: Exp 2
Method: (§1) In the second experiment (Experiment 2), the effect of zibotentan and dapagliflozin (alone or in combination) on Hct concentration and Hb was determined. Seventy-two animals were randomized on BW and Hct concentration, 2 to 3 days prior to administration of study drugs into the following groups; 1) Vehicle, 2) Zibotentan (30 mg/kg), 3) Zibotentan (100 mg/kg), 4) Dapagliflozin (3 mg/kg), 5) Zibotentan (30 mg/kg)+Dapagliflozin (3 mg/kg) and 6) Zibotentan (100 mg/kg)+Dapagliflozin (3 mg/kg). For practical reasons, the study was conducted in two consecutive slots with 36 animals (6/group) in each slot. Compounds were administered p.o. QD for seven days. Blood samples for bioanalysis were collected at 4 and 24 hr after the first dose and 24 hr after the final dose for Hct concentration and Hb analysis on day three and seven as described for exp.1. Twenty-four hour urine was collected between the third and fourth dose. 24 hr food and water intake was measured between day 2-3 and between day 6-7. With two animals per cage, food intake and water intake per animal in a cage was assessed by dividing the food intake and water intake of a cage by two.
(§2) The data for each feature measured was checked for a normal distribution and where appropriate a log transformation was applied to data with a non-normal distribution using R. Since the data were grouped by one factor Zibotentin doses or combined therapy, a one-way ANOVA was used to analyse traits measured at a single time point (GraphPad version 8 or R statistics package emmeans) and a linear mixed effects model (nlme package) in R was used to analyse multiple measures data for body weight. The differences between groups were tested using either a Dunnett test (emmeans package in R or GraphPad v8) when comparing treated groups to the vehicle group or a Tukey comparison (emmeans package in R or Graphpad v8.) for specific pairwise comparisons of treated groups. All model assumptions were checked using the model diagnostic plots in R statistics. Results are expressed as the Mean±standard error of the Mean (SEM) for pharmacodynamic parameters and Mean±standard deviation (SD) for compound concentration in blood and urine. Significance was set at p<0.05.

[2] = tested on: male Wistar rats fed a 4% salt diet; assay: Effect of zibotentan, dapagliflozin and the combination on Hct, Experiment 2; assay type: in vivo; set-up: key to Hct levels, difference in means (estimate): difference in log-transformed Hct means, treated minus vehicle; Hct levels, Difference / Difference in Hct means: unit not given here; conditions: Exp 2; for Difference in Hct means: all time points; for Hct levels, difference in means (estimate): log scale
Method: as §1
(§3) For Hct and Hb analysis, 100 μl of blood from rat's tail vein was collected and measured using CG8 cartridges analysed with an iSTAT instrument (Abbott Point of Care Inc, Abbot Park, IL, USA).
as §2
The Hct data were analysed using a linear mixed effects model to estimate the marginal means and standard deviations within the vehicle and treated groups estimated at day 3, day 7 and overall for the entire study for post hoc comparisons. Treatment groups were compared to the vehicle to determine whether there were effects on Hct compared to the vehicle treated control group (Dunnett test), and the zibotentan treated groups were compared to zibotentan plus dapagliflozin groups (using a Tukey test) to determine if the combined therapy mitigated the effect of zibotentan on Hct.

[3] = tested on: male Wistar rats fed a 4% salt diet; assay: 24 hr water and food intake, Experiment 2; assay type: in vivo; conditions: Exp 2; FIG. 8B and FIG. 8C
Method: as §1

[4] = tested on: male Wistar rats fed a 4% salt diet; assay: Effect on urinary volume, glucose, Na, K, urea and creatinine in the urine, Experiment 2; assay type: in vivo; conditions: Exp 2; for Urine Creatinine / Urine K / Urine Na / Urine Urea / Urine volume: 24 hr urine between third and fourth dose; for Urine glucose excretion: FIG. 8A
Method: as §1
(§4) Plasma and Urine Albumin, Creatinine, Glucose, Urea, Potassium and Sodium levels were analyzed using an ABX Pentra 400 instrument (Horiba Medical, Irvine, California, USA) according to the manufacturers protocol.
as §2

[5] = tested on: male Wistar rats fed a 4% salt diet; assay: Effect on plasma Na, K, glucose, urea and creatinine concentration, Experiment 2; conditions: Exp 2
Method: as §1, §4, §2

[6] = tested on: male Wistar rats fed a 4% salt diet; assay: Effect of zibotentan and dapagliflozin on Hb, Experiment 2; assay type: in vivo; conditions: Exp 2; for Basal Hb: baseline
Method: as §1, §3, §2

[7] = Amount of dapagliflozin and zibotentan excreted in urine, Experiment 2; conditions: Exp 2, urine collected between days 3 and 4
Method: as §1

[8] = Effect of zibotentan, dapagliflozin and the combination on body weight, Experiment 2; conditions: Exp 2; for Prevention of BW gain compared to vehicle: administration period 7 days, FIG. 7
Method: as §1, §2
To assess the effect of the combined therapy on weight loss, body weight was measured every day and was compared using a linear mixed effects model.

CCOc1ccc(Cc2cc([C@@H]3O[C@H](CO)[C@@H](O)[C@H](O)[C@H]3O)ccc2Cl)cc1 [Dapa, (1S)-1,5-anhydro-1-{4-chloro-3-[(4-ethoxyphenyl)methyl]phenyl}-D-glucitol]
Heart weight ([1]; Dapa 3 mg/kg p.o. QD 7 days): 0.85 g
Heart/tibia length ([1]; Dapa 3 mg/kg p.o. QD 7 days): 22.08 mg/mm
Kidney weight ([1]; Dapa 3 mg/kg p.o. QD 7 days): 2.01 g
Kidney/tibia length ([1]; Dapa 3 mg/kg p.o. QD 7 days): 51.96 mg/mm
Difference in Hct means ([2]; Dapa 3 mg/kg vs Vehicle): 0.01
Hct levels, difference in means (estimate) ([2]; day 3, Dapa 3.0 mg/kg vs Vehicle): 0.03
Hct levels, Difference ([2]; day 7, Dapa 3.0 mg/kg vs Vehicle): 0.01
Water and food intake compared to vehicle [3]: increased
24-hour urine volume and urea excretion compared to vehicle [4]: increased
Urine Na, K and creatinine compared to vehicle [4]: No change
Urine Creatinine ([4]; Dapa 3 mg/kg p.o. QD): 76.42 µmol
Urine K ([4]; Dapa 3 mg/kg p.o. QD): 1.40 mmol
Urine Na ([4]; Dapa 3 mg/kg p.o. QD): 12.60 mmol
Urine Urea ([4]; Dapa 3 mg/kg p.o. QD): 7.43 mmol
Urine volume ([4]; Dapa 3 mg/kg p.o. QD): 43.13 mL
Urine glucose excretion [4]: significantly increased
Plasma Na, K, glucose, urea concentrations compared to vehicle [5]: unaltered
Plasma Creatinine ([5]; Dapa 3 mg/kg p.o. QD 7 days): 14.62 µM
Plasma Glucose ([5]; Dapa 3 mg/kg p.o. QD 7 days): 8.98 mmol/L
Plasma K ([5]; Dapa 3 mg/kg p.o. QD 7 days): 3.68 mmol/L
Plasma Na ([5]; Dapa 3 mg/kg p.o. QD 7 days): 137.6 mmol/L
Plasma Urea ([5]; Dapa 3 mg/kg p.o. QD 7 days): 4.34 mmol/L
Day 3 Hb ([6]; Dapa 3 mg/kg p.o. QD): 164.4 g/L
Day 7 Hb ([6]; Dapa 3 mg/kg p.o. QD): 159.1 g/L
Basal Hb ([6]; group Dapa 3 mg/kg): 157.9 g/L
Amount of dapagliflozin excreted in urine ([7]; Dapa 3 mg/kg p.o. QD): 0.198 µmol
Changes in body weight over the entire study, Difference ([8]; Dapa 3 mg/kg vs Vehicle): −0.03
Prevention of BW gain compared to vehicle [8]: prevented this BW gain

COc1nc(C)cnc1NS(=O)(=O)c1cccnc1-c1ccc(-c2nnco2)cc1 [Zibo, N-(3-methoxy-5-methylpyrazin-2-yl)-2-[4-(1,3,4-oxadiazol-2-yl)phenyl]pyridine-3-sulfonamide]
Heart weight ([1]; Zibo 30 mg/kg p.o. QD 7 days): 0.96 g
Heart/tibia length ([1]; Zibo 30 mg/kg p.o. QD 7 days): 24.75 mg/mm
Kidney weight ([1]; Zibo 30 mg/kg p.o. QD 7 days): 2.05 g
Kidney/tibia length ([1]; Zibo 30 mg/kg p.o. QD 7 days): 52.49 mg/mm
Heart weight compared to vehicle, with or without normalizing to tibia length ([1]; Zibo 30 mg/kg, seven days): increased
Heart weight ([1]; Zibo 100 mg/kg p.o. QD 7 days): 0.93 g
Heart/tibia length ([1]; Zibo 100 mg/kg p.o. QD 7 days): 23.82 mg/mm
Kidney weight ([1]; Zibo 100 mg/kg p.o. QD 7 days): 1.90 g
Kidney/tibia length ([1]; Zibo 100 mg/kg p.o. QD 7 days): 48.20 mg/mm
Difference in Hct means ([2]; Zibo 30 mg/kg vs Vehicle): −0.05
Difference in Hct means ([2]; Zibo 100 mg/kg vs Vehicle): −0.06
Hct levels, difference in means (estimate) ([2]; day 3, Zibo 30 mg/kg vs Vehicle): −0.10
Hct levels, difference in means (estimate) ([2]; day 3, Zibo 100 mg/kg vs Vehicle): −0.08
Hct compared to vehicle ([2]; day 3, zibotentan 30 and 100 mg/kg with or without dapagliflozin 3 mg/kg): decreased
Hct levels, Difference ([2]; day 7, Zibo 30 mg/kg vs Vehicle): −0.06
Hct levels, Difference ([2]; day 7, Zibo 100 mg/kg vs Vehicle): −0.08
Hct compared to vehicle ([2]; day 7, zibotentan 30 and 100 mg/kg alone): decreased
Effect on Hct concentration ([2]; zibotentan 100 mg/kg alone, 7 days, one way ANOVA, Tukey): −4.00±0.87
Hct concentration ([2]; zibotentan 30 or 100 mg/kg, 7 days administration): significantly decreased
Water and food intake compared to vehicle [3]: unchanged
24-hour urine volume and urea excretion compared to vehicle [4]: No difference
Urine Na, K and creatinine compared to vehicle [4]: No change
Urine glucose excretion [4]: no effect
Urine Creatinine ([4]; Zibo 30 mg/kg p.o. QD): 71.33 µmol
Urine K ([4]; Zibo 30 mg/kg p.o. QD): 1.27 mmol
Urine Na ([4]; Zibo 30 mg/kg p.o. QD): 10.67 mmol
Urine Urea ([4]; Zibo 30 mg/kg p.o. QD): 4.61 mmol
Urine volume ([4]; Zibo 30 mg/kg p.o. QD): 19.08 mL
Urine Creatinine ([4]; Zibo 100 mg/kg p.o. QD): 68.18 µmol
Urine K ([4]; Zibo 100 mg/kg p.o. QD): 1.16 mmol
Urine Na ([4]; Zibo 100 mg/kg p.o. QD): 10.03 mmol
Urine Urea ([4]; Zibo 100 mg/kg p.o. QD): 4.11 mmol
Urine volume ([4]; Zibo 100 mg/kg p.o. QD): 19.08 mL
Plasma Na, K, glucose, urea concentrations compared to vehicle [5]: unaltered
Plasma Creatinine ([5]; Zibo 30 mg/kg p.o. QD 7 days): 17.58 µM
Plasma Glucose ([5]; Zibo 30 mg/kg p.o. QD 7 days): 8.96 mmol/L
Plasma K ([5]; Zibo 30 mg/kg p.o. QD 7 days): 4.17 mmol/L
Plasma Na ([5]; Zibo 30 mg/kg p.o. QD 7 days): 139.1 mmol/L
Plasma Urea ([5]; Zibo 30 mg/kg p.o. QD 7 days): 4.47 mmol/L
Plasma creatinine compared to vehicle ([5]; Zibo 100 mg/kg monotreatment or in combination with Dapa 3 mg/kg, p<0.05): significantly increase
Plasma Creatinine ([5]; Zibo 100 mg/kg p.o. QD 7 days): 18.08 µM
Plasma Glucose ([5]; Zibo 100 mg/kg p.o. QD 7 days): 8.73 mmol/L
Plasma K ([5]; Zibo 100 mg/kg p.o. QD 7 days): 4.13 mmol/L
Plasma Na ([5]; Zibo 100 mg/kg p.o. QD 7 days): 138.4 mmol/L
Plasma Urea ([5]; Zibo 100 mg/kg p.o. QD 7 days): 4.25 mmol/L
Day 3 Hb ([6]; Zibo 30 mg/kg p.o. QD): 144.4 g/L
Day 7 Hb ([6]; Zibo 30 mg/kg p.o. QD): 148.6 g/L
Day 3 Hb ([6]; Zibo 100 mg/kg p.o. QD): 147.5 g/L
Day 7 Hb ([6]; Zibo 100 mg/kg p.o. QD): 144.8 g/L
Basal Hb ([6]; group Zibo 30 mg/kg): 160.2 g/L
Basal Hb ([6]; group Zibo 100 mg/kg): 158.5 g/L
Amount of zibotentan excreted in urine ([7]; Zibo 30 mg/kg p.o. QD): 2.17 µmol
Amount of zibotentan excreted in urine ([7]; Zibo 100 mg/kg p.o. QD): 3.21 µmol
Changes in body weight over the entire study, Difference ([8]; Zibo 30 mg/kg vs Vehicle): 0.01
Changes in body weight over the entire study, Difference ([8]; Zibo 100 mg/kg vs Vehicle): 0.01
Prevention of BW gain compared to vehicle [8]: did not
